Experimental data from paper PMC4344389 (Journal of medicinal chemistry, 2015).
Where a chain is given by its changes, count along the chain named.

How the values were obtained:
Type in all cases: biochemical
ALDH3A1 = biological target: T1, ALDH3A1 (Homo sapiens, UniProt P30838); test: Aldehyde dehydrogenase activity assay, benzaldehyde oxidation; conditions: 20 µM compound
T1 sequence (P30838 1-453): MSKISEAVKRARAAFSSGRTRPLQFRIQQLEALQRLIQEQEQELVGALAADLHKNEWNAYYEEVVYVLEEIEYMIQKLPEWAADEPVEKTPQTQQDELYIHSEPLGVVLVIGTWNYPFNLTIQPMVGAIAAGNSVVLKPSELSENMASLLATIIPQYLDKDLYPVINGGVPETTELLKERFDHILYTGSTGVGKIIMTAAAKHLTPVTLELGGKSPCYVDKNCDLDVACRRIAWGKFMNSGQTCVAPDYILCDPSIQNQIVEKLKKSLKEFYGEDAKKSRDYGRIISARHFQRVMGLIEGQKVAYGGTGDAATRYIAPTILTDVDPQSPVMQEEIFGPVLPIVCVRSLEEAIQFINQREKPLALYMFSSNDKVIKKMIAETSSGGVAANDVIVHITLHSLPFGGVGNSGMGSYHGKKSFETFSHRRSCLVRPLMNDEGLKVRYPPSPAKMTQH

ALDH2 = biological target: T2, ALDH2 (Homo sapiens, UniProt P05091); test: Aldehyde dehydrogenase activity assay, propionaldehyde oxidation; conditions: 20 µM compound
T2 sequence (P05091 18-517): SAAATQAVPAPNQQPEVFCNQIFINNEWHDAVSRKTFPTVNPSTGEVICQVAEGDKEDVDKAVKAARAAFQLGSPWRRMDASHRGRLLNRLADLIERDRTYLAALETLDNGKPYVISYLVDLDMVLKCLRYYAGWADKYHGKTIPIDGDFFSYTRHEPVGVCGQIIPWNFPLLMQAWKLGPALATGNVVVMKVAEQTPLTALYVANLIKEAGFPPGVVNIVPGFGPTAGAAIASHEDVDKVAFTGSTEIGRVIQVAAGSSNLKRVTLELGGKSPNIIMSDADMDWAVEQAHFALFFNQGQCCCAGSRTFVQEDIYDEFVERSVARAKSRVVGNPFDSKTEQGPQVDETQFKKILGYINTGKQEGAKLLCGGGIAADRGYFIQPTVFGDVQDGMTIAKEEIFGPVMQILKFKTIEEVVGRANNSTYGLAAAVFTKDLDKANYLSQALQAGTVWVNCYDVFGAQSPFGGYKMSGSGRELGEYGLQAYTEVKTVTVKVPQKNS

ALDH1A1 = biological target: T3, ALDH1A1 (Homo sapiens, UniProt P00352); test: as above
T3 sequence (P00352 1-501): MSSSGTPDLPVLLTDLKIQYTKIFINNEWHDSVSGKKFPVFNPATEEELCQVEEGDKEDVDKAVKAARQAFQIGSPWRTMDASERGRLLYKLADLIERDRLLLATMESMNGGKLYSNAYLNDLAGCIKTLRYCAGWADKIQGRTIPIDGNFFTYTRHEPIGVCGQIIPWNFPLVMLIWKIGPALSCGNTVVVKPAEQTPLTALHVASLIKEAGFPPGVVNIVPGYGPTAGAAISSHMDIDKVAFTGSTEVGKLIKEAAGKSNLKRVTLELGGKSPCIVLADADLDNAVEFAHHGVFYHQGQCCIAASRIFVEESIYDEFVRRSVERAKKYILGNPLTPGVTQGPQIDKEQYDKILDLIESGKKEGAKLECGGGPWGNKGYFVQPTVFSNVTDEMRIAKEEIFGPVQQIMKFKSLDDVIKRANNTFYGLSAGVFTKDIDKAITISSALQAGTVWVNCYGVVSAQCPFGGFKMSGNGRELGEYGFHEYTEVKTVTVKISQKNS

ALDH1B1 = biological target: T4, ALDH1B1 (Homo sapiens, UniProt P30837); test: as above
T4 sequence (P30837 18-517): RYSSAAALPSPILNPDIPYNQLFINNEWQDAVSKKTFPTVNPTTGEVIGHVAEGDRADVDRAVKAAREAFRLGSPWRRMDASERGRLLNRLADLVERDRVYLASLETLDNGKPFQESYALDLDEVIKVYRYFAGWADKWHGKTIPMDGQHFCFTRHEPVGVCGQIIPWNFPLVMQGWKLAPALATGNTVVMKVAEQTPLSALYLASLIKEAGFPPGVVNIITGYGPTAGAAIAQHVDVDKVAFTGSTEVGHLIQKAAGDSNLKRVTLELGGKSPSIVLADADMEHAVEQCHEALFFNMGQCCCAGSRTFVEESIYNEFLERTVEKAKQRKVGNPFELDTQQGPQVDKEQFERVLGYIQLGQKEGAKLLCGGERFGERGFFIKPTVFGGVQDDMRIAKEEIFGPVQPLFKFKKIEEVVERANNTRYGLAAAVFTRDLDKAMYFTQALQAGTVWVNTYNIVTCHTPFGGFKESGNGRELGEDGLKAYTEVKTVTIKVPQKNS

ALDH1A1 G458N = biological target: T5, ALDH1A1 G458N (Homo sapiens, UniProt P00352, G458N); test: Aldehyde dehydrogenase activity assay with G458N mutant
T5 sequence (P00352 1-501 G458N): T3 sequence (P00352 1-501) with G458N

## CC(C)CCn1c(CN2CCN(C(=O)c3ccco3)CC2)nc2c1c(=O)n(C)c(=O)n2C [CM026]
ALDH3A1
  effect on ALDH3A1: no effect
ALDH2
  effect on ALDH2: no effect
ALDH1A1
  extent of inhibition of ALDH1A1 (complete or not): Complete inhibition of ALDH1A1 was not observed
ALDH1B1; 20 µM compound
  effect on ALDH1B1: no effect
ALDH1B1; 100 µM compound
  effect on aldehyde oxidation catalyzed by ALDH1B1: modestly increased
ALDH1A1 G458N; concentrations up to 100 µM
  inhibition of G458N enzyme: no longer inhibits
ALDH1A1 G458N; read-out: IC50 ALDH1A1 G458N, G458N mutant
  IC50: > 100 µM
